# Experimental data as given in patent publication US4485039A, “Synthetic analogues of α-melanotropin” (University Patents, Inc., priority 1982, dated 1984).
# Positions of bridges follow the written chain, without caps; N, C: chain ends. Residues, ends and D or L forms follow the SMILES beside them.
# Key:
# [1] = tested on: lizard (Anolis carolinensis) skin melanophores; assay: lizard skin bioassay, melanosome dispersion in vitro; assay type: cell-based
# [2] = cited from earlier work
# [3] = tested on: frog (Rana pipiens) skin melanophores; assay: duration of melanosome dispersion, frog skin bioassay; assay type: cell-based; conditions: 5×10^-10 M, skins rinsed at 60 minutes
# Description: The compounds of Example 1 were examined with respect to the duration of their ability to stimulate melanosome dispersion in vitro using the frog (Rana pipiens) skin bioassay.
# At time zero, 5×10^-10 M of α-MSH was added to one group of frog skins and 5×10^-10 M of the test compounds were individually added to the second and third groups of skins. At time=60 minutes, skins were rinsed and transferred to Ringers solution.
# [4] = tested on: frog (Rana pipiens) skin melanophores; assay: frog skin bioassay, melanosome dispersion in vitro; assay type: cell-based; conditions: standard frog skin assay
# From the text: The Example 1 compounds were examined for their biological effects on melanosome dispersion in vitro using the standard frog (Rana pipiens) skin bioassay and photo-reflectance methods. See, Hadley, et al., Science, 213, pp. 1025-1027 (1981).
# [5] = tested on: adenylate cyclase in Cloudman S-91 mouse melanoma tumors; conditions: [α-32P]ATP conversion to [32P]cAMP
# From the text: ATP conversion to [^32 P]cAMP in Cloudman S-91 mouse melanoma tumors as described in Sawyer, et al., Proc. Nat. Acad. Sci. USA, 77, 5754-5758 (1980). [^32 P]cAMP was isolated, purified and detected according to Salomon, et al., Anal. Biochem., 24, pp. 18-26 (1976).
molecule,measurement,setting,value
"CC(=O)N[C@H]1CSSC[C@@H](C(=O)N[C@@H](CCCCN)C(=O)N2CCC[C@H]2C(=O)N[C@H](C(N)=O)C(C)C)NC(=O)[C@H](Cc2c[nH]c3ccccc23)NC(=O)[C@H](CCCNC(=N)N)NC(=O)[C@H](Cc2ccccc2)NC(=O)[C@H](Cc2cnc[nH]2)NC(=O)[C@H](CCC(=O)O)NC1=O [acetyl-[half-Cys^4, half-Cys^10]-α-MSH4-13NH.sbsb.2] (Ac-CEHFRWCKPV-NH2; disulfide 1-7)",potency relative to the native hormone,[1],about 1.6 times
Ac-Ser^1 -Tyr^2 -Ser^3 -Met^4 -Glu^5 -His^6 -Phe^7 -Arg^8 -Trp^9 -Gly^10 -Lys^11 -Pro^12 -Val^13 -NH2 [α-MSH],half-life in serum,[2],less than 2 minutes
same,time until activity completely reversed,[3],less than three
same,time to complete degradation to a biologically inactive compound,chymotrypsin,≤ 5 minutes
"[half-Cys^5, half-Cys^11 ]-α-MSH",potency compared with α-MSH (in words),[4],less potent than α-MSH
same,enzymatic stability compared with α-MSH (in words),chymotrypsin,enzymatically more stable than α-MSH
"[Half-Cys^4, half-Cys^10 ]-α-MSH",potency relative to the native hormone,[1],approximately thirty
same,maximal adenylate cyclase activity compared with α-MSH,[5],same maximal adenylate cyclase activity as α-MSH
same,potency relative to the native hormone,[5],approximately three
